Source: US20250082598A1, “Melafenoxate, 2-(1-adamantylamino)ethyl 2-(4-chlorophenoxy)acetate and derivatives thereof for treating circadian rhythm sleep disorders with neurodegenerative diseases such as Alzheimer's disease” (NLS Pharmaceutics AG, priority 2021, published 2025)
“Also recorded” adds a separate entry of the source.

Tested on: C57BL/6J mice
Test: Scopolamine-induced amnesia in the novel object recognition (NOR) test
Assay type: in vivo
Protocol: The scopolamine-induced amnesia in the novel object recognition (NOR) test in mice is a recognized in vivo model of Alzheimer Disease (AD).
The aim of this study is to examine whether Melafenoxate (NLS-8) improves amnesia induced by scopolamine in the NOR test.
Experiments were carried out on C57BL/6J mice.
In a first step of the experiment, NLS-8 was tested at 25, 50 and 100 mg/kg.
Animals were divided into 6 groups (N=4-10/group).
At T=0 min, they received the following treatments by intraperitoneal (i.p.) route: • Control group: vehicle. • Scopolamine group: scopolamine (1.2 mg/kg). • NLS-8 25 group: NLS-8 (25 mg/kg)+scopolamine (1.2 mg/kg). • NLS-8 50 group: NLS-8 (50 mg/kg)+scopolamine (1.2 mg/kg). • NLS-8 100 group: NLS-8 (100 mg/kg)+scopolamine (1.2 mg/kg). • NLS-8 150 group: NLS-8 (150 mg/kg)+scopolamine (1.2 mg/kg).
At T=30 min following treatment, animals were subjected to a sample trial. They were placed for a 12-min session in a circular experimental box in which two identical objects were presented (50% of animals: two brown cylindrical vials; 50% of animals: two black rectangular columns). At t=120 min following treatments, mice were subjected to a choice trial. They were placed again for a 12-min session in the same experimental box in which two different objects (a vial and a column) were presented: one of the objects (termed as familiar object) presented in the sample trial and a novel object. Exploration of the objects was recorded by an experimenter blind to treatment and unaware of which object was the novel one and which object was the familiar one.
DI(discrimination index)=100 ×(exploration time of the novel object−exploration time of the familiar object)/(exploration time of the novel object+exploration time of the familiar object). • Index of exploration: N+F=exploration time of the novel object+exploration time of the familiar object.
• Within group comparisons: DI vs. 0 (paired Student's t test). • Between group comparisons vs. the Control group and vs. the Scopo group: unpaired Student's t test.

[1] = NLS-8 25-150 mg/kg + scopolamine 1.2 mg/kg i.p.

**Q.** With `O=C(COc1ccc(Cl)cc1)OCCNC12CC3CC(CC(C3)C1)C2` [Melafenoxate, 2-(1-adamantylamino)ethyl 2-(4-chlorophenoxy)acetate] as the molecule, how does the “discrimination index vs. 0 (within group)” value (NLS-8 25 mg/kg + scopolamine 1.2 mg/kg i.p.) read?
**A.** Non-significantly higher than 0

**Q.** And the “discrimination index vs. 0 (within group)” value (NLS-8 50 mg/kg + scopolamine 1.2 mg/kg i.p.)?
**A.** Significantly higher than 0

**Q.** What about the “exploration time of objects (N+F) during the choice trial” value (NLS-8 50 mg/kg + scopolamine 1.2 mg/kg i.p., vs. Control and Scopo groups) of the same molecule?
**A.** higher than that of Control and Scopo groups

**Q.** And the “discrimination index vs. 0 (within group)” value (NLS-8 100 mg/kg + scopolamine 1.2 mg/kg i.p.)?
**A.** Non-significantly higher than 0

**Q.** And the “discrimination index vs. 0 (within group)” value (NLS-8 150 mg/kg + scopolamine 1.2 mg/kg i.p.)?
**A.** Non-significantly higher than 0

**Q.** And the “effect on amnesia induced by scopolamine (conclusion)” value (NLS-8 25-150 mg/kg)?
**A.** can improve amnesia induced by scopolamine

**Q.** And the “discrimination index, NLS-8 groups vs. Control group” value [1]?
**A.** Not significantly different

**Q.** And the “discrimination index, NLS-8 groups vs. Scopo group” value [1]?
**A.** Not significantly different; also recorded: not significant

**Q.** And the “exploration time of objects (N+F) during the choice trial” value (all other comparisons (other than NLS-8 50 group) vs. Control and vs. Scopo group)?
**A.** not significant
